Results on 1 molecule are retold here after publication PMC7579906, “Discovery of a dual inhibitor of NQO1 and GSTP1 for treating glioblastoma” (Journal of Hematology & Oncology, 2020).

In assay [1] the test system is U87MG/EGFRvIII cells. In words: ROS measurement (DCFH-DA). It is filed as cell-based, human. The settings on record: dose-dependent, 0-5 μM. Here is the method: The DCFH-DA method was employed to detect the levels of intracellular reactive oxygen species (ROS). After various treatments, the cells were collected and then incubated with 5 μM DCFH-DA (ROS dye, #C6827, Invitrogen, USA) for 1 h at 37 °C. The fluorescence intensity was measured by the microplate reader (BioTek Instruments Inc., USA) with settings at excitation and emission equal to 485/535 nm.

Assay [2] deals with T1, GSTP1 F8A/Y108A (Homo sapiens, UniProt P09211, F9A/I105V/Y109A).
T1 construct: hexahistidine tag followed by a thrombin site (N); made in house; host or cells: Escherichia coli BL21 (DE3)
T1 sequence (P09211 whole entry F9A/I105V/Y109A): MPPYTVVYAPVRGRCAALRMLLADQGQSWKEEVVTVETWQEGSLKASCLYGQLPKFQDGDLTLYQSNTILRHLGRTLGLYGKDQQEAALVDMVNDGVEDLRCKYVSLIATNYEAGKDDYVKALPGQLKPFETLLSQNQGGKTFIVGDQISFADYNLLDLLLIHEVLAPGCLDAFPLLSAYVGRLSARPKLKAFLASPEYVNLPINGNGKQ
The experiment in a line: GSTP1 kinetic assay, F8A/Y108A mutant. It is filed as biochemical. The settings on record: mean ± SEM (n=3). The procedure: The enzymatic activity of GSTP1 and its mutations was measured through the increased absorbance at 340 nm, which derived from the conjugation of reduced glutathione (GSH) and 1-chloro-2,4-dinitrobenzene (CDNB). The conjugation was initiated by adding CDNB to the mixture of GSH and GSTP1 or its mutants, and OD was immediately and continually measured for 20 min at 25 °C. The final assay mixture included 1 mM CDNB, 1 mM GSH in the buffer of 100 mM potassium phosphate pH 6.5, 1 mM EDTA. The inhibitory potency of MNPC versus GSTP1 or mutants was determined by calculating the residual activity after incubated with MNPC for 30 min at room temperature. Parallel control was run to monitor spontaneous conjugation of GSH and CDNB in the absence of the enzyme, and absorbance change of the control was used for the correction of an enzymatic reaction. The inhibition rate in triplicate was calculated by GraphPad Prism software (GraphPad, San Diego, CA) to give IC50 using nonlinear regression analysis.

Assay [3] addresses T2, GSTP1 V104A (Homo sapiens, UniProt P09211, I105A).
T2 construct: hexahistidine tag followed by a thrombin site (N); made in house; host or cells: Escherichia coli BL21 (DE3)
In words: Microscale thermophoresis (MST), V104A. It counts as binding. The settings on record: mean ± SEM, three experiments. Here is the method:
Since Tris buffer is incompatible with MST labeling, GSTP1 and its mutants were performed an initial buffer exchange to 20 mM HEPES pH 7.6, 200 mM NaCl before labeling. Then, the proteins were fluorescently labeled using Monolith Protein Labeling Kit RED-NHS 2nd generation dye (NanoTemper Technology, Munich, Germany) according to the protocol. MNPC was prepared with a series of concentrations (varying from 2 mM to 11 nM) at a dilution ratio of 1: 2. Six microliters of the fluorescence-labeled GSTP1 or mutations was mixed with 6 μl of variable concentration of MNPC and incubated for 10 min at room temperature. The mixtures were loaded into standard glass capillaries and analyzed on Monolith NT.115 at 25 °C, with 40% LED power and 100% Laser power in triplicate. Data were analyzed by NTAnalysis software to calculate the Kd values.
Background: Microscale thermophoresis detects binding through changes in fluorescence in a small temperature gradient.

T2 sequence (P09211 2-210 I105A): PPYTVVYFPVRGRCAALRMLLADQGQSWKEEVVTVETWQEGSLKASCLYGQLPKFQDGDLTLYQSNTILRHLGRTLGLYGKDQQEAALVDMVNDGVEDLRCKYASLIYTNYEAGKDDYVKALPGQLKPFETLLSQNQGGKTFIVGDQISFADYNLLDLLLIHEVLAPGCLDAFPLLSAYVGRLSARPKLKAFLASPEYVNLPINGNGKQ

The term IC50 denotes the concentration that inhibits the measured activity by half. Lower therefore signals greater potency. What is called Kd is the equilibrium constant for the complex coming apart. Read a high Kd as a looser complex. `Cc1onc(-c2ccccc2)c1C(=O)Nc1ncc([N+](=O)[O-])s1` [MNPC, 5-methyl-N-(5-nitro-thiazol-2-yl)-3-phenylisoxazole-4-carboxamide]: in assay [1], the ROS levels result is “elevated”. Moreover, in assay [2], the IC50 was 4.01 ± 0.6 µM. This molecule registered a Kd in assay [3] of 24.4 ± 1.95 µM.
